Where two headings read alike, the source gives them in different places.
Target: T1, EBP-Ig (N-terminal 225 amino acids of the human EPO receptor joined to an Ig heavy chain) (Homo sapiens, UniProt P19235)
T1 construct: Ig heavy chain (fusion partner); made in house; host or cells: NSO cells (secreted into conditioned media)
T1 sequence (P19235 25-250 limits assumed): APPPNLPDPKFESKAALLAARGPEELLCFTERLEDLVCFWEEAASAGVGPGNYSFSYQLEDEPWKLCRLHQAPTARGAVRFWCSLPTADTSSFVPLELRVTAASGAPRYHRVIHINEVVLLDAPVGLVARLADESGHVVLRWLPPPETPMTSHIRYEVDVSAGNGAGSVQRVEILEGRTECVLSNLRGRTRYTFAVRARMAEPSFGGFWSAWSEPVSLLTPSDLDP
Assay: Inhibition of [125I]EPO binding to immobilized EBP-Ig (EPO binding protein-Ig), scintillation Flash plate competition assay
Conditions: for % inh @ 50 μM (Inhibition of EPO binding to EBP-Ig): 50 μM test compound, average % inhibition; for IC30 μM (Inhibition of EPO binding to EBP-Ig): 0–500 μM test compound
Description: The interaction of biotin and streptavidin is frequently employed to capture and effectively immobilize reagents useful in assay protocols and has been employed here as a simple method to capture and immobilize EBP-Ig. EBP-Ig is initially randomly modified with an amine reactive derivative of biotin to produce biotinylated-EBP-Ig. Use of streptavidin coated plates allows the capture of the biotinylated EBP-Ig on the surface of a scintillant impregnated coated well (Flash plates, NEN-DuPont). […] The amount of light produced was quantified to estimate the amount of ligand binding. The specific assay format was suitable for the multi-well plate capacity of a Packard TopCount Microplate Scintillation counter.
Biotinylated EBP-Ig was prepared as follows. EBP-Ig (3 mL, OD280 2.9) was exchanged into 50 mM sodium bicarbonate, pH 8.5 using a Centriprep 10 ultrafiltration device. The final volume of the exchanged protein was 1.2 mL (OD280 2.6, representing about 2 mg total protein). 10 μL of a 4 mg/ml solution of NHS-LC-Biotin (Pierce) was added and the reaction mixture placed on ice in the dark for two hours. Unreacted biotin was removed by exchange of the reaction buffer into PBS in a Centriprep 10 device and the protein reagent aliquoted and stored at −70° C.
All wells were adjusted to a final DMSO concentration of 5%. […] After all additions were made, the plate was covered with an adhesive top seal and placed in the dark at room temperature overnight. The next day all liquid was aspirated from the wells to limit analyte dependent quench of the signal, and the plates were counted on a Packard TOPCOUNT Microplate Scintillation Counter. […] Corrected total binding (CTB) was calculated as: TB−NSB=CTB. […] Table 1 lists the average % inhibition, and if determined the IC50 and IC30 values for compounds of Formula I, where the compound numbers refer to the compounds in the tables accompanying the preparative examples.

[1] = read-out: % inh @ 50 μM (Inhibition of EPO binding to EBP-Ig)
[2] = read-out: EPO/EBP-Ig % inh @ 50 μM, Table 7, 50 μM
[3] = read-out: IC50, μM (Inhibition of EPO binding to EBP-Ig), 0.5 nM [125I]EPO, concentration reducing corrected total binding to 50%

COC(=O)C(CCCCN)N(Cc1ccc(OCc2ccccc2)cc1)Cc1cccc(NC(=O)c2ccncc2)c1 (centres unmarked) [compound 120]
% inh @ 50 μM (Inhibition of EPO binding to EBP-Ig) (0.5 nM [125I]EPO): 35% | EPO/EBP-Ig % inh @ 50 μM (Table 7, 50 μM): 35%

O=C(O)CC(C(=O)O)N(CC=Cc1cccs1)CC=Cc1cccs1 (centres unmarked) [compound 53]
EPO/EBP-Ig % inh @ 50 μM (Table 3, 50 μM): 14%

O=C(O)CCC(C(=O)O)N(C/C=C/c1ccc(NC(=O)Oc2ccccc2)cc1)Cc1ccc(OCc2ccccc2)cc1 (centres unmarked) [compound 89]
EPO/EBP-Ig % inh @ 50 μM (Table 5, 50 μM): 22%

COC(=O)C(CCCCN)N(Cc1ccc(OCc2ccccc2)cc1)Cc1cccc(NC(=O)c2ccc(C)cc2)c1 (centres unmarked) [compound 118]
IC50: 10 µM | IC30 μM (Inhibition of EPO binding to EBP-Ig) (0.5 nM [125I]EPO): 2 µM | inhibition at 50 µM [1]: 36% | inhibition at 50 µM [2]: 36%

CC(C)(C)OC(=O)NCCCCC(C(=O)O)N(C/C=C/c1ccc([N+](=O)[O-])cc1)C/C=C/c1ccc([N+](=O)[O-])cc1 (centres unmarked) [compound 179]
EPO/EBP-Ig % inh @ 50 μM (50 μM compound, Table 9): 30% | % inh @ 50 μM (Inhibition of EPO binding to EBP-Ig) (0.5 nM [125I]EPO): 30%

Cc1ccc(Oc2cccc(/C=C/C(=O)N(Cc3cccc(Oc4ccccc4)c3)C(CCCCN)C(=O)O)c2)cc1 (centres unmarked) [compound 287]
EPO/EBP-Ig % inh @ 50 μM (50 μM compound, Table 15): 36% | % inh @ 50 μM (Inhibition of EPO binding to EBP-Ig) (0.5 nM [125I]EPO): 36%

COC(=O)C(CCCCNC(=O)OCc1ccccc1)N(C/C=C/c1cccc(Oc2ccccc2)c1)C/C=C/c1cccc(Oc2ccccc2)c1 (centres unmarked) [compound 176]
EPO/EBP-Ig % inh @ 50 μM (50 μM compound, Table 9): −4%

CCCCNC(=O)C(CCCCNC(=O)c1ccc(OC)cc1)N(C/C=C/c1ccccc1)C/C=C/c1ccccc1 (centres unmarked) [compound 207]
EPO/EBP-Ig % inh @ 50 μM (50 μM compound, Table 10): 20%

O=C(O)CC(C(=O)O)N(CC=Cc1cccc(Oc2ccccc2)c1)CC=Cc1cccc(Oc2ccccc2)c1 (centres unmarked) [cpd 107, N,N-bis(3-Phenoxycinnamyl)Asp-OH]
IC30 μM (Inhibition of EPO binding to EBP-Ig) (0.5 nM [125I]EPO): 30 µM | % inh @ 50 μM (Inhibition of EPO binding to EBP-Ig) (0.5 nM [125I]EPO): 78% | EPO/EBP-Ig % inh @ 50 μM (Table 6, 50 μM): 78%

NCCCCC(C(=O)O)N(Cc1cccc(Oc2ccccc2)c1)C(=O)/C=C/c1ccc(Oc2ccccc2)cc1 (centres unmarked) [compound 289]
EPO/EBP-Ig % inh @ 50 μM (50 μM compound, Table 15): 20%

COc1ccc(CCNC(=O)C(CCCCNC(=O)Nc2ccc(Cl)c(Cl)c2)N(C/C=C/c2ccccc2)C/C=C/c2ccccc2)cc1 (centres unmarked) [compound 230]
EPO/EBP-Ig % inh @ 50 μM (50 μM compound, Table 10): 42% | % inh @ 50 μM (Inhibition of EPO binding to EBP-Ig) (0.5 nM [125I]EPO): 42%

COC(=O)[C@H](CCCCNC(=O)OC(C)(C)C)NC/C=C/c1cccc(Oc2ccc(C(C)(C)C)cc2)c1 [compound 317]
EPO/EBP-Ig % inh @ 50 μM (50 μM compound, Table 18A): 13%

O=C(O)CCC(C(=O)O)N(C/C=C/c1ccc(NC(=O)c2ccncc2)cc1)Cc1ccc(OCc2ccccc2)cc1 (centres unmarked) [compound 86]
% inh @ 50 μM (Inhibition of EPO binding to EBP-Ig) (0.5 nM [125I]EPO): 37% | EPO/EBP-Ig % inh @ 50 μM (Table 5, 50 μM): 37%

COC(=O)C(CCCCN)N(Cc1ccc(OCc2ccccc2)cc1)Cc1cccc([N+](=O)[O-])c1 (centres unmarked) [compound 114]
IC30 μM (Inhibition of EPO binding to EBP-Ig) (0.5 nM [125I]EPO): 10 µM | inhibition at 50 µM [1]: 37% | inhibition at 50 µM [2]: 37%

Cc1ccc(S(=O)(=O)Nc2ccc(/C=C/CN(Cc3ccc(OCc4ccccc4)cc3)C(CCC(=O)O)C(=O)O)cc2)cc1 (centres unmarked) [compound 87]
EPO/EBP-Ig % inh @ 50 μM (Table 5, 50 μM): 23%

CC(C)(C)OC(=O)CCC(C(=O)OC(C)(C)C)N(C/C=C/c1cccc(Oc2ccc(C(C)(C)C)cc2)c1)C/C=C/c1cccc(Oc2ccc(C(C)(C)C)cc2)c1 (centres unmarked) [compound 102]
EPO/EBP-Ig % inh @ 50 μM (Table 6, 50 μM): 5%

COc1ccc(CCNC(=O)C(CCCCNC(=O)OC(C)(C)C)N(C/C=C/c2cccc(Oc3ccccc3)c2)C/C=C/c2cccc(Oc3ccccc3)c2)cc1 (centres unmarked) [compound 225]
EPO/EBP-Ig % inh @ 50 μM (50 μM compound, Table 10): 10%

CC(C)(C)OC(=O)C(CCCCNC(=O)OCc1ccccc1)N(C/C=C/c1ccccc1)C/C=C/c1ccccc1 (centres unmarked) [compound 173]
EPO/EBP-Ig % inh @ 50 μM (50 μM compound, Table 9): 5%

CC(C)(C)OC[C@@H](C(=O)O)N(C/C=C/c1cccc(Oc2ccc(Cl)c(Cl)c2)c1)C/C=C/c1cccc(Oc2ccc(Cl)c(Cl)c2)c1 [compound 302]
EPO/EBP-Ig % inh @ 50 μM (50 μM compound, Table 16A): 30%

CC(=O)O.COC(=O)c1cccc(/C=C/CN[C@@H](Cc2ccccc2)C(=O)OC)c1 [compound 361]
EPO/EBP-Ig % inh @ 50 μM (50 μM compound): 24%

NCCCCC(C(=O)NCc1ccccc1)N(CC=Cc1ccccc1)CC=Cc1ccccc1 (centres unmarked) [compound 235]
IC30 μM (Inhibition of EPO binding to EBP-Ig) (0.5 nM [125I]EPO): 20 µM | inhibition at 50 µM [1]: 49% | inhibition at 50 µM (read-out: EPO/EBP-Ig % inh @ 50 μM, 50 μM compound, Table 10): 49% | IC50 [3]: 50 µM

CC(C)(C)OC(=O)CC[C@H](NC/C=C/c1cccc(Oc2ccc(C(C)(C)C)cc2)c1)C(=O)OC(C)(C)C [compound 339]
EPO/EBP-Ig % inh @ 50 μM (50 μM compound, Table 19A): 10%

O=C(NCCCCC(C(=O)OCc1ccccc1)N(CC=Cc1cccs1)CC=Cc1cccs1)OCc1ccccc1 (centres unmarked) [compound 57]
EPO/EBP-Ig % inh @ 50 μM (Table 3, 50 μM): 0%

CC(=O)O.COC(=O)[C@H](CO)N(C/C=C/c1ccccc1)C/C=C/c1ccccc1 [compound 310]
EPO/EBP-Ig % inh @ 50 μM (50 μM compound, Table 16A): 34%

COC(=O)[C@H](CCC(=O)O)NC/C=C/c1cccc(Oc2ccc(Cl)c(Cl)c2)c1.O=C(O)C(F)(F)F [compound 328]
EPO/EBP-Ig % inh @ 50 μM (50 μM compound, Table 19A): 33%

Cc1ccc(Oc2cccc(CN(Cc3cccc(NCc4c(F)c(F)c(F)c(F)c4F)c3)C(CC(=O)O)C(=O)O)c2)cc1 (centres unmarked) [compound 72]
EPO/EBP-Ig % inh @ 50 μM (Table 4, 50 μM): −14%

COC(=O)C(CCC(=O)OC(C)(C)C)N(C/C=C/c1ccccc1)C/C=C/c1ccccc1 (centres unmarked) [compound 93]
EPO/EBP-Ig % inh @ 50 μM (Table 6, 50 μM): 20%

COC(=O)[C@H](COC(C)(C)C)NC/C=C/c1cccc(Oc2ccc(Cl)c(Cl)c2)c1 [compound 354]
EPO/EBP-Ig % inh @ 50 μM (50 μM compound, Table 20A): 31%

COC(=O)C(CCCCNC(=O)OC(C)(C)C)N(C/C=C/c1cccc(Oc2ccc(C(C)(C)C)cc2)c1)C/C=C/c1cccc(Oc2ccc(C(C)(C)C)cc2)c1 (centres unmarked) [compound 181]
EPO/EBP-Ig % inh @ 50 μM (50 μM compound, Table 9): −9%

O=C(O)CC(C(=O)O)N(Cc1cccc(NCc2cccc(Cl)c2)c1)Cc1cccc(Oc2ccccc2)c1 (centres unmarked) [compound 66]
EPO/EBP-Ig % inh @ 50 μM (Table 4, 50 μM): −16%

COC(=O)[C@H](COC(C)(C)C)N(C/C=C/c1cccc(Oc2ccc(C(C)(C)C)cc2)c1)C/C=C/c1cccc(Oc2ccc(C(C)(C)C)cc2)c1 [compound 294]
EPO/EBP-Ig % inh @ 50 μM (50 μM compound, Table 16A): 9%

O=C(O)C(F)(F)F.O=C(O)[C@H](CO)N(C/C=C/c1cccc(Oc2cccc(C(F)(F)F)c2)c1)C/C=C/c1cccc(Oc2cccc(C(F)(F)F)c2)c1 [compound 308]
EPO/EBP-Ig % inh @ 50 μM (50 μM compound, Table 16A): 25%

COC(=O)C(CCCCNC(=O)OCc1ccccc1)N(C/C=C/c1ccc2ccccc2c1)C/C=C/c1ccc2ccccc2c1 (centres unmarked) [compound 175]
EPO/EBP-Ig % inh @ 50 μM (50 μM compound, Table 9): 1%

CC(C)(C)c1ccc(Oc2cccc(/C=C/CN[C@@H](CO)C(=O)O)c2)cc1.O=C(O)C(F)(F)F [compound 351]
EPO/EBP-Ig % inh @ 50 μM (50 μM compound, Table 20A): 29%

Cc1ccc(Oc2cccc(CN(Cc3cccc(NCc4cccc(C#N)c4)c3)C(CC(=O)O)C(=O)O)c2)cc1 (centres unmarked) [compound 74]
EPO/EBP-Ig % inh @ 50 μM (Table 4, 50 μM): −7%

CC(C)(C)OC[C@@H](C(=O)O)N(C/C=C/c1ccc(-c2ccccc2)cc1)C/C=C/c1ccc(-c2ccccc2)cc1 [compound 301]
EPO/EBP-Ig % inh @ 50 μM (50 μM compound, Table 16A): 25%

NCCCCC(C(=O)NCCc1ccccc1)N(C/C=C/c1cccc(Oc2ccccc2)c1)C/C=C/c1cccc(Oc2ccccc2)c1 (centres unmarked) [compound 239]
IC30 μM (Inhibition of EPO binding to EBP-Ig) (0.5 nM [125I]EPO): 8 µM | EPO/EBP-Ig % inh @ 50 μM (50 μM compound, Table 10): 46% | % inh @ 50 μM (Inhibition of EPO binding to EBP-Ig) (0.5 nM [125I]EPO): 46% | IC50 [3]: 50 µM

CC(C)(C)OC(=O)NCCCCC(C(=O)NCc1ccc(OCC=Cc2ccccc2)cc1)N(CC=Cc1ccccc1)CC=Cc1ccccc1 (centres unmarked) [compound 216]
EPO/EBP-Ig % inh @ 50 μM (50 μM compound, Table 10): 10%

COC(=O)C(CCC(=O)O)N(C/C=C/c1cccc(Oc2ccc(Cl)c(Cl)c2)c1)C/C=C/c1cccc(Oc2ccc(Cl)c(Cl)c2)c1 (centres unmarked) [compound 101]
% inh @ 50 μM (Inhibition of EPO binding to EBP-Ig) (0.5 nM [125I]EPO): 32% | EPO/EBP-Ig % inh @ 50 μM (Table 6, 50 μM): 32%

CC(C)(CC(=O)O)CC(=O)NCCCCC(C(=O)NCCCOCCCCOCCCNC(=O)C(CCCCNC(=O)CC(C)(C)CC(=O)O)N(Cc1ccc(OCc2ccccc2)cc1)Cc1ccc(OCc2ccccc2)cc1)N(Cc1ccc(OCc2ccccc2)cc1)Cc1ccc(OCc2ccccc2)cc1 (centres unmarked) [compound 267]
IC30 μM (Inhibition of EPO binding to EBP-Ig) (0.5 nM [125I]EPO): 2 µM | EPO/EBP-Ig % inh @ 50 μM (50 μM compound, Table 13): 83% | % inh @ 50 μM (Inhibition of EPO binding to EBP-Ig) (0.5 nM [125I]EPO): 83% | IC50 [3]: 6 µM

Source: patent US7153869B2, “Substituted amino acids as erythropoietin mimetics” (priority 1998, dated 2006)
